Key:
[1] = system: cultivated fibroblast derived from a patient of Fabry disease; assay: Simultaneous addition of α-NAGA mutant and DGJ to cultivated fibroblast derived from patient of Fabry disease; format: cell-based, human
Method: A cultivated fibroblast derived from a patient of Fabry disease was cultured at 37° C. under a 5% carbon dioxide environment with use of an F-10 medium to which a 10% fetal calf serum and an antibiotic substance had been added. First, concentration dependence of DGJ with respect to uptake efficiency of an α-NAGA mutant was analyzed. The cells were seeded to a 12-well plate at 1.0×10^5 cells/well. Then, the medium was exchanged with a medium containing 1 μg/mL of an α-NAGA mutant and any of concentrations (0, 1, 10, and 100 μM) of DGJ, and cultivation was carried out for 24 hours. The cells were cleaned three times with PBS, then treated with use of trypsin, and then collected. 20 mM MES (pH 6.0) containing Complete Mini (Roche) was added to the collected cells, and the cells were then subjected to an ultrasonic treatment. The homogenate thus obtained was subjected to centrifugal separation under conditions of 4° C. and 12,000 rpm, and the obtained supernatant liquid was used as samples for enzyme activity measurement, protein quantification, and Western blotting.
Next, in order to confirm time dependence, 1 μg/mL of an α-NAGA mutant and 10 μM of DGJ were added to the cells, and cultivation was carried out for 24 hours, 48 hours, and 72 hours. Then, enzyme activity measurement, protein quantification, and Western blotting were carried out. […]

[2] = target: T1, α-NAGA mutant (Homo sapiens, UniProt P17050, A191L/S188E); assay: Calculation of inhibition constant Ki (Lineweaver-Burk plot); format: biochemical; conditions: substrate 1-8 mM; DGJ 100-400 nM, GBS 200-800 nM; pH 4.6; FIG. 2
T1 sequence (P17050 with tags, fused parts or gaps S188E/A191L): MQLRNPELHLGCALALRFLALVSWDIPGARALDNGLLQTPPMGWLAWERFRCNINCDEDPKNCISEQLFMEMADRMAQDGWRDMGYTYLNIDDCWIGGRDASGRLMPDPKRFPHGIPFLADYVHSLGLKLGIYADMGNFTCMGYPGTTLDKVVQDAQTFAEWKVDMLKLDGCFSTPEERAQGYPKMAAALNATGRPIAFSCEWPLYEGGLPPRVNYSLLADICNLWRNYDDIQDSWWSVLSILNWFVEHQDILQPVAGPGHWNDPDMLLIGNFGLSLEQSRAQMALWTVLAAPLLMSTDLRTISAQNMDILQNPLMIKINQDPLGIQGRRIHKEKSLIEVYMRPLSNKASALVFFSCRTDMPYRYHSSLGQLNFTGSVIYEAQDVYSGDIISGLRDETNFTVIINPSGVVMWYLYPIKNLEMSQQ
Method: Enzymatic analysis was carried out by using, as a reaction liquid, 50 ng of an α-NAGA mutant and 0.1 M phosphate-citrate buffer (pH 4.6) in which a 4-methylumbelliferylα-D-galactopyranoside substrate was dissolved at any of concentrations (1, 2, 4, 6, and 8 mM) (the total amount was 50 μl). In measuring inhibitory activity, reaction was carried out with a reaction liquid which contained DGJ at a concentration of 100, 200, or 400 nM or GBS at a concentration of 200, 400, or 800 nM. After the reaction was carried out at 37° C. for 10 minutes, 950 μl of 0.2 M glycine buffer (pH 10.7) was added to stop the reaction. Then, released 4-methylumbelliferone was measured at an excitation wavelength of 355 nm and at a fluorescence wavelength of 460 nm with use of Wallac 1420 ARVO MX Multilabel Counter. From these values, a Lineweaver-Burk plot was prepared and an inhibition constant Ki was calculated from slopes in the plot which correspond to respective concentrations of the inhibitor.

`OCC1NCC(O)C(O)C1O` [DGJ, (2R,3S,4R,5S)-2-(hydroxymethyl)piperdine-3,4,5-triol] was tested, and the “α-NAGA mutant enzyme activity in cells” value ([1]; 1 μg/mL α-NAGA mutant plus 0-100 μM DGJ 24 hours, or 10 μM DGJ 24-72 hours, FIG. 6(a), 7(a)) was “enzyme activity was improved”, the “amount of protein of the α-NAGA mutant taken in a cell (Western blotting)” value ([1]; simultaneous addition of DGJ versus no DGJ, FIG. 6(b), 7(b)) was “confirmed to be increased” and the “inhibition pattern from inhibition constant Ki” value [2] was “inhibitory activity by competitive inhibition”.

From patent US20200115698A1, “PHARMACEUTICAL COMBINATION FOR TREATMENT OF FABRY DISEASE AND USE THEREOF” (MEIJI PHARMACEUTICAL UNIVERSITY, priority 2017, published 2020)
